The text below walks through data of patent US20260262643A1, “HERBICIDAL BENZOXAZINES” (FMC CORPORATION, priority 2022, published 2026).

Experiment [1] relates to ragweed. The experiment in a line: Test A preemergence. To be noted: 1000 g ai/ha, 0 to 100 scale (0 no effect, 100 complete control), 10 days. It is filed as in vivo, Ambrosia artemisiifolia. In a few lines:
(§1)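 Weeds and crops in loam–sand blend were sprayed preemergence onto soil or postemergence at 2–10 cm (one- to two-leaf stage). Test chemicals were in a non-phytotoxic solvent with surfactant. After 10 days in the greenhouse, injury was rated visually against untreated controls on a 0 (no effect) to 100 (complete control) scale.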

In experiment [2] the test system is Pigweed, Redroot. In words: Test A preemergence. In kind it is in vivo, Amaranthus retroflexus. To be noted: 1000 g ai/ha, 0 to 100 scale (0 no effect, 100 complete control), 10 days. The method, boiled down:
as §1

The test system of experiment [3] is ducksalad. The experiment in a line: Test B flooded paddy test. In kind it is in vivo, Heteranthera limosa. The following applies: 250 g ai/ha, Flood, 13 days, 0 to 100 scale (0 no effect, 100 complete control). In a few lines:
(§2)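 2-leaf stage; pots flooded 3 cm over soil; compound dosed into paddy water; depth kept constant. Greenhouse, 13 d. Visual rating vs controls, 0 (no effect)–100 (complete control). Dash = no result.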

The subject of experiment [4] is rice. In words: Test B flooded paddy test. In kind it is in vivo, Oryza sativa. To be noted: 250 g ai/ha, Flood, 13 days, 0 to 100 scale (0 no effect, 100 complete control). In a few lines: as §2
The subject of experiment [5] is ryegrass, Italian. In words: Test A postemergence. To be noted: 1000 g ai/ha, Postemergence; 0 to 100 scale. It is filed as in vivo, Lolium multiflorum. The method, boiled down:
as §1

Experiment [6] relates to kochia. In words: Test A postemergence. In kind it is in vivo, Bassia scoparia. The following applies: 1000 g ai/ha, Postemergence; 0 to 100 scale. In a few lines: as §1
For experiment [7], the system named is barnyardgrass. In words: Test B flooded paddy test. It is filed as in vivo, Echinochloa crus-galli. The following applies: 250 g ai/ha, Flood, 13 days, 0 to 100 scale (0 no effect, 100 complete control). In a few lines: as §2
The test system of experiment [8] is blackgrass. The experiment in a line: Test A postemergence. In kind it is in vivo, Alopecurus myosuroides. To be noted: 1000 g ai/ha, Postemergence; 0 to 100 scale. In a few lines:
as §1

In experiment [9] the test system is wheat. In words: Test A postemergence. It is filed as in vivo, Triticum aestivum. The following applies: 1000 g ai/ha, Postemergence; 0 to 100 scale. The method, boiled down: as §1
Experiment [10] has as its system ryegrass, Italian. In words: Test A preemergence. In kind it is in vivo, Lolium multiflorum. The following applies: 1000 g ai/ha, 0 to 100 scale (0 no effect, 100 complete control), 10 days. The method, boiled down:
as §1

Experiment [11] concerns kochia. The experiment in a line: Test A preemergence. It is filed as in vivo, Bassia scoparia. The following applies: 1000 g ai/ha, 0 to 100 scale (0 no effect, 100 complete control), 10 days. The method, boiled down: as §1
The subject of experiment [12] is ragweed. The experiment in a line: Test A postemergence. In kind it is in vivo, Ambrosia artemisiifolia. To be noted: 1000 g ai/ha, Postemergence; 0 to 100 scale. In a few lines: as §1
Experiment [13] has as its system Pigweed, Redroot. In words: Test A postemergence. It is filed as in vivo, Amaranthus retroflexus. The following applies: 1000 g ai/ha, Postemergence; 0 to 100 scale. An excerpt: Seeds of plant species selected from barnyardgrass (Echinochloa crusgalli), blackgrass (Alopecurus myosuroides), corn (Zea mays), foxtail, giant (giant foxtail, Setaria faberi), goosegrass (Eleusine indica), kochia (Bassia scoparia), oat, wild (wild oat, Avena fatua), pigweed, palmer (palmer amaranth, palmer pigweed, Amaranthus palmeri), Pigweed, Redroot (redroot pigweed, Amaranthus retroflexus), ragweed (common ragweed, Ambrosia artemisiifolia), ryegrass, Italian (italian ryegrass, Lolium multiflorum), soybean (Glycine max), and wheat (Triticum aestivum) were planted into a blend of loam soil and sand and treated preemergence with a directed soil spray using test chemicals formulated in a non-phytotoxic solvent mixture which included a surfactant. At the same time, plants selected from these crops and weed species and also galium (catchweed bedstraw, Galium aparine) and horseweed (Erigeron canadensis) were planted in pots containing the same blend of loam soil and sand and treated with postemergence applications of test chemicals formulated in the same manner. Plants ranged in height from 2 to 10 cm and were in the one- to two-leaf stage for the postemergence treatment. Treated plants and untreated controls were maintained in a greenhouse for 10 days, after which time all treated plants were compared to untreated controls and visually evaluated for injury. Plant response ratings, summarized in Table A, are based on a 0 to 100 scale where 0 is no effect and 100 is complete control. A dash (-) response means no test result.

In experiment [14] the test system is barnyardgrass. In words: Test A postemergence. It is filed as in vivo, Echinochloa crusgalli. To be noted: 1000 g ai/ha, Postemergence; 0 to 100 scale. In a few lines: as §1
Experiment [15] relates to sedge, umbrella. In words: Test B flooded paddy test. The following applies: 250 g ai/ha, Flood, 13 days, 0 to 100 scale (0 no effect, 100 complete control). In kind it is in vivo, Cyperus difformis. In a few lines: as §2
The subject of experiment [16] is foxtail, giant. The experiment in a line: Test A postemergence. In kind it is in vivo, Setaria faberi. To be noted: 1000 g ai/ha, Postemergence; 0 to 100 scale. In a few lines: as §1
The test system of experiment [17] is foxtail, giant. In words: Test A preemergence. The following applies: 1000 g ai/ha, 0 to 100 scale (0 no effect, 100 complete control), 10 days. It is filed as in vivo, Setaria faberi. The method, boiled down:
as §1

Experiment [18] deals with corn. In words: Test A postemergence. It is filed as in vivo, Zea mays. The following applies: 1000 g ai/ha, Postemergence; 0 to 100 scale. The method, boiled down: as §1
In experiment [19] the test system is barnyardgrass. In words: Test A preemergence. In kind it is in vivo, Echinochloa crusgalli. The following applies: 1000 g ai/ha, 0 to 100 scale (0 no effect, 100 complete control), 10 days. The method, boiled down: as §1

Take `Cc1cccc2c1OC(C)CN2C(=O)c1ccc(C#N)c(-n2cncn2)c1` (stereo not drawn) [Compound 29]: the “Plant response rating, Ragweed” value in experiment [1] and in experiment [12] was 0 each time. Besides, the “Plant response rating, Pigweed, Redroot” value amounted to 60 in [2] and 50 in [13]. In experiment [3], the “Plant response rating, Ducksalad” value is listed as 0. Besides, the “Plant response rating, Rice” value in experiment [4] stood at 0. Moreover, the “Plant response rating, Ryegrass, Italian” value in [5] is 50; in [10] it was 90. Moreover, the “Plant response rating, Kochia” value in experiment [6] is listed as 10; in [11], 20. The “Plant response rating, Barnyardgrass” value came to 0 in experiment [7], 70 in experiment [14] and 90 in experiment [19]. Moreover, the “Plant response rating, Blackgrass” value in [8] was found to be 70. For the same compound, the “Plant response rating, Wheat” value in experiment [9] turned out to be 60. Moreover, the “Plant response rating, Sedge, Umbrella” value in experiment [15] was 0. The “Plant response rating, Foxtail, Giant” value in experiment [16] stood at 90; in experiment [17], 100. Moreover, the “Plant response rating, Corn” value in experiment [18] is listed as 80.
Consider `CC1CN(C(=O)c2cccc(-n3cncn3)c2)c2cccc(Br)c2O1` (stereo not drawn) [Compound 25], for which the “Plant response rating, Ragweed” value in [1] and in experiment [12] was 0 throughout. For the same compound, the figures for the “Plant response rating, Pigweed, Redroot” value in [2] and in experiment [13] were 100 and 40, respectively. The “Plant response rating, Ducksalad” value in experiment [3] is listed as 35. Moreover, the “Plant response rating, Rice” value in experiment [4] is 0. Also, the entries for the “Plant response rating, Ryegrass, Italian” value in [5] and in experiment [10] were 90 and 100, respectively. Moreover, the entries for the “Plant response rating, Kochia” value in [6] and in experiment [11] were 50 and 30, respectively. Further, the figures for the “Plant response rating, Barnyardgrass” value in experiment [7], in [14] and in experiment [19] were 0, 50 and 90, respectively. The “Plant response rating, Blackgrass” value in experiment [8] is recorded as 90. Moreover, in [9], the “Plant response rating, Wheat” value turned out to be 70. In experiment [15], the “Plant response rating, Sedge, Umbrella” value amounted to 0. Further, the “Plant response rating, Foxtail, Giant” value was found to be 90 in experiment [16] and 100 in experiment [17]. In addition, the “Plant response rating, Corn” value in experiment [18] was 70.
Turning to `C#Cc1cccc2c1OC(C)CN2C(=O)c1cccc(-n2cncn2)c1` (stereo not drawn) [Compound 30], the “Plant response rating, Ragweed” value in experiment [1] and in [12] was 0 each time. Further, the results for the “Plant response rating, Pigweed, Redroot” value in [2] and in experiment [13] were 100 and 30, respectively. For the same compound, the “Plant response rating, Ducksalad” value in experiment [3] turned out to be 0. In addition, the “Plant response rating, Rice” value in experiment [4] was found to be 0. In addition, the entries for the “Plant response rating, Ryegrass, Italian” value in experiment [5] and in [10] were 70 and 100, respectively. For the same compound, the results for the “Plant response rating, Kochia” value in experiment [6] and in experiment [11] were 10 and 20, respectively. Besides, the “Plant response rating, Barnyardgrass” value worked out at 0 in [7], 20 in experiment [14] and 30 in [19]. Also, the “Plant response rating, Blackgrass” value in experiment [8] is given as 70. Also, in experiment [9], the “Plant response rating, Wheat” value amounted to 40. The “Plant response rating, Sedge, Umbrella” value in [15] is 0. Also, the figures for the “Plant response rating, Foxtail, Giant” value in experiment [16] and in [17] were 40 and 80, respectively. Moreover, the “Plant response rating, Corn” value in experiment [18] is 10.
